# Results reported in paper PMC12948427 (The Journal of Clinical Investigation, 2025).
# Values joined by “and” are separate entries in the source; they are usually repeats but may differ in a detail not shown here. Equal values may be shown once. Read-outs that look alike come from different tables or passages of the source.
# Tests used:
# [1] = system: SARS-CoV-2 wild-type; assay: microbe, parasite or virus in culture; type: cell-based; conditions: Severe acute respiratory syndrome coronavirus 2, 24 h, read-out: EC50 (IFA)
# [2] = system: SARS-CoV-2 Omicron BA.5; assay: microbe, parasite or virus in culture; type: cell-based; conditions: Severe acute respiratory syndrome coronavirus 2, 24 h, read-out: EC50 (IFA)
# [3] = system: HCoV-229E; assay: In vitro antiviral activity assay (IFA), HCoV-229E; type: cell-based; conditions: for Inhibition rate (IFA): Fig 5F, MOI 0.1, 48 h
# [4] = system: WIV1; assay: microbe, parasite or virus in culture; type: cell-based, bat coronavirus WIV1; conditions: Bat coronavirus, 48 h, read-out: EC50 (IFA)
# [5] = system: WIV1; type: cell-based, bat coronavirus WIV1
# [6] = system: SARS-CoV-2 Omicron BA.5; type: in vivo, K18-hACE2 C57BL/6 mice; conditions: mouse, in vivo
# [7] = system: MHV; parameters: species or system C57BL/6 mice; conditions: mouse, in vivo
# [8] = system: SARS-CoV-2 VLP; type: cell-based
# [9] = system: MERS VLP; type: cell-based, MERS-CoV
# [10] = system: HCoV-HKU1 VLP; type: cell-based
# [11] = system: MHV; assay: TEM of MHV-infected 17Cl-1 cells (virions, DMVs); type: cell-based, mouse hepatitis virus (MHV)
# Description: WT or Hgs-KO 17Cl-1 cells were grown on ACLAR films and infected with MHV. At 24 hpi the cells were rinsed with PBS and then fixed with 2.5% glutaraldehyde in PBS overnight. The fixed cells were rinsed with 0.1 M PB 2 times and then double-distilled water 2 times, each time for 6 minutes. They were submerged in an aqueous solution containing 1% osmium tetraoxide and 1.5% potassium ferricyanide for 1.5 hours and then rinsed with double-distilled water 3 times, each time for 6 minutes. The samples underwent a dehydration process in which the solution submerging the samples was sequentially replaced by 30%, 50%, 70%, 80%, 90%, 100%, 100%, and 100% ethanol solutions, with each solution submerging the sample for 6 minutes. The samples were then infiltrated sequentially with 100% acetone for 6 minutes 2 times, 3:1 acetone/EMbed 812 resin for 1 hour, 1:1 acetone/EMbed 812 resin for 2 hours, 1:3 acetone/EMbed 812 resin for 3 hours, and 100% EMbed 812 resin for 12 hours 2 times. The samples were embedded in EMbed 812 resin and underwent solidification at 45°C for 12 hours and then 60°C for 48 hours. Sectioning was performed with a Leica EM UC6 ultramicrotome. The sections were stained with 2% uranyl acetate for 15 minutes and 1% lead citrate for 5 minutes. Electron micrographs were acquired with an FEI Tecnai Spirit 120 kV transmission electron microscope operating at 100 kV accelerating voltage.
# [12] = system: SARS-CoV-2 M protein; type: cell-based
# [13] = system: MHV; type: cell-based, mouse hepatitis virus (MHV)
# [14] = type: cell-based
# [15] = system: 17Cl-1 cells
# [16] = system: Vero E6 cells
# [17] = system: Calu-3 cells
# [18] = Tolerability of RTB in mice; conditions: high concentrations (500 mg/kg)
# [19] = TEM, RTB-treated versus DMSO, sheet does not name what is scored
structure (smiles),measurement,setting,value
"CCCC(=O)OC[C@@H](OC(=O)CCC)[C@@H](OC(=O)CCC)[C@H](Cn1c2nc(=O)[nH]c(=O)c-2nc2cc(C)c(C)cc21)OC(=O)CCC [RTB, riboflavin tetrabutyrate]",EC50,[1],14.8 µM
same,EC50,[2],4.09 µM
same,Inhibition rate (IFA),[3]; conc 10 (unit not given),1.96% and 3.23% and 5.67%
same,Inhibition rate (IFA),[3]; conc 30 (unit not given),3.76% and 4.49% and 3.62%
same,Inhibition rate (IFA),[3]; conc 100 (unit not given),5.42% and 6.32% and 1.81%
same,Inhibition rate (IFA),[3]; conc 200 (unit not given),10.91% and 9.21% and 8.05%
same,Inhibition rate (IFA),[3]; conc 1000 (unit not given),20.9% and 20.96% and 21.52%
same,Inhibition rate (IFA),[3]; conc 5000 (unit not given),53.61% and 55.59% and 56.09%
same,Inhibition rate (IFA),[3]; conc 10000 (unit not given),87.09% and 86.7% and 87.17%
same,Inhibition rate (IFA),[3]; conc 20000 (unit not given),98.7% and 98.72% and 98.89%
same,EC50,"[3]; Human coronavirus 229E, 48 h, read-out: EC50 (IFA)",6.11 µM
same,EC50,[4],3.53 µM
same,inhibition of infection in ALI cultures of HBEs,[5],"significant, dose-dependent inhibition"
same,Survival curves: per-mouse event code,[6],0
same,body weight loss,[6],markedly reduced body weight loss
same,lung inflammation,[6],alleviated lung inflammation
same,pulmonary viral titers,[6],substantially lowered pulmonary viral titers
same,survival,[6],significantly improved survival
same,pulmonary viral titers,[7],lowered pulmonary viral titers
same,viral gRNA,[7],significantly reduced viral gRNA
same,virus-induced lung injury,[7],markedly attenuated virus-induced lung injury
same,VLPs' release,[8],concentration-dependent inhibition
same,VLPs' release,[9],concentration-dependent inhibition
same,VLPs' release,[10],concentration-dependent inhibition
same,"DMVs, the replication organelles (TEM)","[11]; 25 μM, MHV-infected 17Cl-1, hpi = 24 h",not significantly changed
same,intracellular mature virions (TEM),"[11]; 25 μM, MHV-infected 17Cl-1, hpi = 24 h, compared with DMSO",significantly decreased
same,"Negative (count, Figure 7G)","[11]; RTB-treated, DMSO: 19",2
same,"Positive (count, Figure 7G)","[11]; RTB-treated, DMSO: 41",58
same,"Negative (number of cells counted, Figure 7H)",[11]; [19],37
same,"Positive (number of cells counted, Figure 7H)",[11]; [19],23
same,Colocalization of M with Sec61b (Manders' coefficient),[12],0.92 and 0.994 and 0.992
same,M protein localization,[12],induced M retention in the ER
same,Sec61b colocalization coefficient (Figure 7I),[12],0.867 and 0.94 and 0.917
same,Extracellular MHV gRNA (Figure S11A),"[13]; Ctr 17Cl-1 cells, 24 hpi",2.752 and 2.754 and 2.756
same,Extracellular MHV gRNA (Figure S11A),"[13]; Ctr 17Cl-1 cells, 48 hpi",3.4199 and 3.426 and 3.424
same,Extracellular MHV gRNA (Figure S11A),"[13]; Ctr 17Cl-1 cells, 72 hpi",4.001 and 4.062 and 3.972
same,Extracellular MHV gRNA (Figure S11A),"[13]; Hgs-KO1 17Cl-1 cells, 24 hpi",1.499 and 1.531 and 1.548
same,Extracellular MHV gRNA (Figure S11A),"[13]; Hgs-KO1 17Cl-1 cells, 48 hpi",1.985 and 1.987 and 1.914
same,Extracellular MHV gRNA (Figure S11A),"[13]; Hgs-KO1 17Cl-1 cells, 72 hpi",3.343 and 3.307 and 3.373
same,Extracellular MHV gRNA (Figure S11A),"[13]; Hgs-KO2 17Cl-1 cells, 24 hpi",1.087 and 1.162 and 1.202
same,Extracellular MHV gRNA (Figure S11A),"[13]; Hgs-KO2 17Cl-1 cells, 48 hpi",1.5876 and 1.652 and 1.594
same,Extracellular MHV gRNA (Figure S11A),"[13]; Hgs-KO2 17Cl-1 cells, 72 hpi",2.484 and 2.493 and 2.452
same,antiviral activity in Hgs-KO cells,"[13]; MHV, Hgs-KO 17Cl-1, RTB 25 μM or RDV 5 μM, compared with DMSO-treated Hgs-KO cells",failed to inhibit viral infection
same,"Inhibition, time-of-drug-addition (Figures S12A, S12B)","[14]; 1h, concentration 10000 (unit not given)",18.697 and 20.3699 and 24.961
same,"Inhibition, time-of-drug-addition (Figures S12A, S12B)","[14]; 1h, concentration 25000 (unit not given)",81.3431 and 85.284 and 85.9984
same,"Inhibition, time-of-drug-addition (Figures S12A, S12B)","[14]; 3h, concentration 3000 (unit not given)",10.0367 and 8.463 and 5.695
same,"Inhibition, time-of-drug-addition (Figures S12A, S12B)","[14]; 3h, concentration 10000 (unit not given)",25.0374 and 23.4524 and 23.7085
same,"Inhibition, time-of-drug-addition (Figures S12A, S12B)","[14]; 3h, concentration 25000 (unit not given)",87.678 and 84.0771 and 84.6309
same,"Inhibition, time-of-drug-addition (Figures S12A, S12B)","[14]; 5h, concentration 10000 (unit not given)",24.2683 and 28.1902 and 26.5679
same,"Inhibition, time-of-drug-addition (Figures S12A, S12B)","[14]; 5h, concentration 25000 (unit not given)",80.9022 and 85.7938 and 85.9604
same,"Inhibition, time-of-drug-addition (Figures S12A, S12B)","[14]; 7h, concentration 3000 (unit not given)",11.352 and 13.6306 and 7.232
same,"Inhibition, time-of-drug-addition (Figures S12A, S12B)","[14]; 7h, concentration 10000 (unit not given)",27.8545 and 21.5848 and 25.4245
same,"Inhibition, time-of-drug-addition (Figures S12A, S12B)","[14]; 7h, concentration 25000 (unit not given)",81.9707 and 81.2844 and 80.2961
same,"cell viability, Figure S9C",[15]; concentration 100,97.7719 and 100.641 and 97.299
same,"cell viability, Figure S9C",[15]; concentration 200,98.9701 and 100.61 and 98.3395
same,"cell viability, Figure S9C",[15]; concentration 500,100.294 and 99.5691 and 98.0557
same,"cell viability, Figure S9C",[15]; concentration 1000,100.137 and 99.6952 and 100.704
same,"cell viability, Figure S9C",[15]; concentration 2000,101.366 and 100.294 and 100.61
same,"cell viability, Figure S9C",[15]; concentration 5000,101.555 and 101.524 and 100.673
same,"cell viability, Figure S9C",[15]; concentration 10000,99.979 and 101.24 and 100.294
same,"cell viability, Figure S9C",[15]; concentration 20000,99.506 and 99.1907 and 98.4025
same,"cell viability, Figure S9M",[16]; concentration 100,90.9619 and 91.4921 and 91.5678
same,"cell viability, Figure S9M",[16]; concentration 200,83.3123 and 82.1005 and 89.9015
same,"cell viability, Figure S9M",[16]; concentration 500,91.4921 and 86.1146 and 87.6294
same,"cell viability, Figure S9M",[16]; concentration 1000,92.9311 and 88.614 and 83.4638
same,"cell viability, Figure S9M",[16]; concentration 2000,97.5511 and 94.5216 and 90.4317
same,"cell viability, Figure S9M",[16]; concentration 5000,93.6885 and 92.1737 and 93.0068
same,"cell viability, Figure S9M",[16]; concentration 10000,96.718 and 96.0363 and 91.6435
same,"cell viability, Figure S9M",[16]; concentration 20000,91.6435 and 99.3688 and 98.3085
same,"cell viability, Figure S9N",[17]; concentration 100,105.852 and 107.383 and 107.23
same,"cell viability, Figure S9N",[17]; concentration 200,101.565 and 101.412 and 100.391
same,"cell viability, Figure S9N",[17]; concentration 500,101.157 and 97.3801 and 98.3498
same,"cell viability, Figure S9N",[17]; concentration 1000,97.9415 and 98.4518 and 97.0228
same,"cell viability, Figure S9N",[17]; concentration 2000,101.616 and 101.361 and 95.2365
same,"cell viability, Figure S9N",[17]; concentration 5000,102.331 and 100.647 and 99.932
same,"cell viability, Figure S9N",[17]; concentration 10000,101.31 and 101.055 and 99.5747
same,"cell viability, Figure S9N",[17]; concentration 20000,107.281 and 106.312 and 107.792
same,cytotoxicity or adverse effects in mice,[18],no cytotoxicity or adverse effects
